Test results as given in US20250009716A1, “NOVEL INHIBITORS OF CLAUDIN-1 FOR THERAPEUTIC INTERVENTIONS” (BOARD OF REGENTS OF THE UNIVERSITY OF NEBRASKA, priority 2021, published 2025).

Columns and labels:
Assay type in all cases: cell-based
[1] = tested on: p-Src and c-PARP in SW480claudin-1 overexpressing cells; experiment: Expression of p-Src, Src and c-PARP
Description: (§1) To this end, a library of molecules was synthesized in order to develop an initial SAR evaluation. The first compounds tested eliminated the acylated (thio) urea as well as the napthyl group and evaluated just the urea/phenyl compounds (Compounds 1-6). The methoxy group of the naphthalene ring system was needed when the benzimidazole group was present (16 vs. Compound 8). […] The result of metabolic stability was expressed as the percentage of drug remaining at each time. […] To further determine the effect of PDS-0330 on p-Src expression and association, cells were treated with Compound 1, 16 and PDS-0330. Expression and association with p-Src was unaffected with Compound 1 (negative control). The specificity of PDS-0330 for CLDN1 was further confirmed by treating SW480^CLDN1, HCT116^CLDN2 (overexpressing another tight junction protein) or normal IEC-6 cells with PDS-0330 (FIG. 12).
Furthermore, DLD-1 chemoresistant cells were treated with PDS-0330 and I-6. […] Based on the in vitro activity and metabolic stability, PDS-0330, and any potential new analogs will be evaluated in animal models to determine the pharmacokinetic properties and biodistribution as described in preliminary data.

[2] = tested on: SW480claudin-1 cells; experiment: Resistance to anoikis in claudin-1 overexpressing cells; conditions: 72 h treatment
Description: The crystal structure of claudin-1 is unknown. Therefore, an in-silico protein folding program, YASARA, was used to identify an effective claudin-1 inhibitor. The resultant 3D-structure was then modeled using Molegro Virtual Docker (MVD) software program. These in-silico analyses identified putative cavities in the claudin-1 protein that can be targeted by small molecule inhibitors. Next, a 100K library of small molecules was screened in silico using the MVD. The top 10 inhibitors that bound to the Site #3 (targeting near c-terminal domain; the most accessible pocket; FIG. 2A) with the best binding energies were selected as hits and used for further testing. Screening of these inhibitors named Inihibitor-1 (1-1) to Inhibitor-10 (I-10) was done using SW480claudin-1, SW620 and control cells. Claudin-1 deficient HCT116 cells (WT-APC) or SW620shRNAcld-1 were used as negative controls. Resistance to anoikis and cell invasion was used as biological end-points in testing these inhibitors. […] 16 has the following structure:
as §1

[3] = target: T1, claudin-1/Src complex in SW480claudin-1 cells (Homo sapiens, UniProt O95832); experiment: Claudin-1/Src association (proximity ligation assay, Co-IP); conditions: PLA, Co-IP or immuno-precipitation
T1 construct: claudin-1 was expressed in a non-metastatic CRC cell line, SW480 cells; expressed in transfected cells; host or cells: SW480 colorectal cancer cells expressing claudin-1 (SW480claudin-1)
T1 sequence (O95832 1-211): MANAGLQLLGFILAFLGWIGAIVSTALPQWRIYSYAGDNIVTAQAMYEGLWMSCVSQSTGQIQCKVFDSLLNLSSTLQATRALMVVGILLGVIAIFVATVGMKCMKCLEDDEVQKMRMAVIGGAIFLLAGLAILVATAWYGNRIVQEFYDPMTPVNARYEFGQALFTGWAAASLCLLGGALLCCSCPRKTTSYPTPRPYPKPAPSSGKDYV
Description: The CSC cells contribute to the generation of metastasis (16-19), and key CSC characteristics are highly relevant to metastasis, including invasive motility, and, resistance to apoptosis (20,21). […] Considering that chemoresistance is central to the CRC progression and metastasis, we further tested if adjuvant use of 16 with 5FU can have significant bearing upon these traits. Colon cancer cells were subjected to exogenous administration of 16 alone, or in combination with the 5-FU, the conventional anti-CRC drug. […] To further determine the mechanistic details the effect of 16 on association of claudin-1 and Src, SW480claudin-1 cells were treated with 16 or the vehicle and resultant cell lysate was subjected to Proximity ligation assay (PLA) or Co—IP.

claudin-1/Src (p-Src) association [3]: unaffected
SMILES: COc1ccccc1NC(=O)Nc1ccc(-c2nc3ccccc3[nH]2)cc1 [Compound 1]
p-Src expression [1]: unaffected | effect on resistance to anoikis [2]: not much change
